Laboratory results reported in patent US6461997B1, “Triazole sulfones having herbicidal activity” (Monsanto Technology LLC, priority 1999, dated 2002).

Test system: GALAP (catchweed bedstraw)
Assay: Pre-emergence herbicidal activity, cool season
Assay type: in vivo, Galium aparine
Settings: lowest tested rate with 80% or greater inhibition; rates 300, 100, 30, 10 g/ha; about 14 days
In short: (§1)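 Seeds sown in sterilised fertilised topsoil received surface-applied compound in 50:50 acetone/water, typically at 300, 100, 30 and 10 g/ha, then greenhouse-grown at 30/21° C (warm-season species) or 18/13° C (cool-season species). Percent inhibition versus untreated plants was scored at about 14 days, giving GR80; an asterisk marks activity short of 80% at the top rate.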

SMILES	Pre-emergence activity GR80, GALAP
CCN(CC)C(=O)n1cnc(S(=O)(=O)C(F)(F)SCc2ccccc2)n1 [Example 10]	[empty]
CCN(CC)C(=O)n1cnc(S(=O)(=O)C(F)(F)Cl)n1 [Example 3]	100 g/ha
CCN(CC)C(=O)n1cnc(S(=O)(=O)C(F)(F)C(=O)c2ccccc2)n1 [Example 6]	100 g/ha
CCN(CC)C(=O)n1cnc(S(=O)(=O)C(F)(F)C(F)(F)Br)n1 [Example 4]	100 g/ha

Test system: LAMPU (purple deadnettle)
Assay: Pre-emergence herbicidal activity, cool season
Assay type: in vivo, Lamium purpureum
Settings: lowest tested rate with 80% or greater inhibition; rates 300, 100, 30, 10 g/ha; about 14 days
In short: as §1

SMILES	Pre-emergence activity GR80, LAMPU
CCN(CC)C(=O)n1cnc(S(=O)(=O)C(F)(F)SCc2ccccc2)n1 [Example 10]	100 g/ha
CCN(CC)C(=O)n1cnc(S(=O)(=O)C(F)(F)Cl)n1 [Example 3]	100 g/ha
CCN(CC)C(=O)n1cnc(S(=O)(=O)C(F)(F)C(=O)c2ccccc2)n1 [Example 6]	100 g/ha
CCN(CC)C(=O)n1cnc(S(=O)(=O)C(F)(F)C(F)(F)Br)n1 [Example 4]	30 g/ha

Test system: SORHA (johnsongrass (seedling))
Assay: Pre-plant incorporated (PPI) herbicidal activity, warm season
Assay type: in vivo, Sorghum halepense
Settings: PPI application, 10 g/ha
Method: (§2) In another set of tests, the pre-plant incorporated (PPI) activity of compounds of this invention was evaluated on the same species as for the pre-emergence tests described above. In the PPI tests the following procedure, designed to simulate PPI application, was used.
(§3) A pre-prepared topsoil mixture (described above) was placed in a pot and compacted to a depth of 1.0 to 1.25 cm from the top of the pot. Seeds of each of several monocotyledonous and dicotyledonous annual plant species were placed on top of the soil. A sufficient quantity of soil to cover the seeds and level fill the pot was weighed into an open container. A known amount of the test compound was dissolved or suspended in an organic solvent and applied by spraying to this cover soil. The cover soil was thoroughly mixed to distribute the test compound throughout the cover soil, and was then applied as a cover layer over the seeds. Untreated soil was used as a cover layer for control pots. After treatment the plants were placed in a greenhouse where they received 0.64 cm of overhead irrigation. All subsequent watering consisted of a light overhead mist and/or subirrigation as needed for germination and growth. Tables 9 and 10 below relate to warm season plant species which were placed after pre-emergence treatment in a greenhouse with a 30/21° C. day/night temperature regime. Tables 11 and 12 below relates to cool season plant species placed after pre-emergence treatment in a greenhouse or growth chamber with an 18/13° C. day/night temperature regime. Only the compounds of Examples 1, 6, 8, 11, 13 and 15-20 were included in PPI tests.
(§4) Approximately 14 days after planting and treating, the plants were observed and herbicidal efficacy recorded as percent inhibition by comparison with untreated plants.

SMILES	Percent inhibition SORHA
CCN(CC)C(=O)n1cnc(S(=O)(=O)C(F)(F)SCc2ccccc2)n1 [Example 10]	0%

Same assay, conditions: PPI application, 30 g/ha

SMILES	Percent inhibition SORHA
CCN(CC)C(=O)n1cnc(S(=O)(=O)C(F)(F)SCc2ccccc2)n1 [Example 10]	0%
CCN(CC)C(=O)n1cnc(S(=O)(=O)C(F)(F)Cl)n1 [Example 3]	99%
CCN(CC)C(=O)n1cnc(S(=O)(=O)C(F)(F)C(F)(F)Br)n1 [Example 4]	60%

Same assay, conditions: PPI application, 100 g/ha

SMILES	Percent inhibition SORHA
CCN(CC)C(=O)n1cnc(S(=O)(=O)C(F)(F)SCc2ccccc2)n1 [Example 10]	50%
CCN(CC)C(=O)n1cnc(S(=O)(=O)C(F)(F)Cl)n1 [Example 3]	100%
CCN(CC)C(=O)n1cnc(S(=O)(=O)C(F)(F)C(F)(F)Br)n1 [Example 4]	100%

Same assay, conditions: PPI application, 300 g/ha

SMILES	Percent inhibition SORHA
CCN(CC)C(=O)n1cnc(S(=O)(=O)C(F)(F)SCc2ccccc2)n1 [Example 10]	100%
CCN(CC)C(=O)n1cnc(S(=O)(=O)C(F)(F)Cl)n1 [Example 3]	100%
CCN(CC)C(=O)n1cnc(S(=O)(=O)C(F)(F)C(F)(F)Br)n1 [Example 4]	100%

Same assay, conditions: PPI application, 900 g/ha

SMILES	Percent inhibition SORHA
CCN(CC)C(=O)n1cnc(S(=O)(=O)C(F)(F)SCc2ccccc2)n1 [Example 10]	100%
CCN(CC)C(=O)n1cnc(S(=O)(=O)C(F)(F)Cl)n1 [Example 3]	100%
CCN(CC)C(=O)n1cnc(S(=O)(=O)C(F)(F)C(F)(F)Br)n1 [Example 4]	100%

Same assay, conditions: pre-plant incorporated; lowest tested rate with 80% or greater inhibition; about 14 days

SMILES	PPI activity GR80, SORHA
CCN(CC)C(=O)n1cnc(S(=O)(=O)C(F)(F)C(=O)c2ccccc2)n1 [Example 6]	100 g/ha

Test system: BRAPP (broadleaf signalgrass)
Assay: as above
Assay type: in vivo, Brachiaria platyphylla
Settings: PPI application, 10 g/ha
Method: as §2, §3, §4

SMILES	Percent inhibition BRAPP
CCN(CC)C(=O)n1cnc(S(=O)(=O)C(F)(F)SCc2ccccc2)n1 [Example 10]	0%

Same assay, conditions: PPI application, 30 g/ha

SMILES	Percent inhibition BRAPP
CCN(CC)C(=O)n1cnc(S(=O)(=O)C(F)(F)SCc2ccccc2)n1 [Example 10]	20%
CCN(CC)C(=O)n1cnc(S(=O)(=O)C(F)(F)Cl)n1 [Example 3]	30%
CCN(CC)C(=O)n1cnc(S(=O)(=O)C(F)(F)C(F)(F)Br)n1 [Example 4]	0%

Same assay, conditions: PPI application, 100 g/ha

SMILES	Percent inhibition BRAPP
CCN(CC)C(=O)n1cnc(S(=O)(=O)C(F)(F)SCc2ccccc2)n1 [Example 10]	70%
CCN(CC)C(=O)n1cnc(S(=O)(=O)C(F)(F)Cl)n1 [Example 3]	100%
CCN(CC)C(=O)n1cnc(S(=O)(=O)C(F)(F)C(F)(F)Br)n1 [Example 4]	60%

Same assay, conditions: PPI application, 300 g/ha

SMILES	Percent inhibition BRAPP
CCN(CC)C(=O)n1cnc(S(=O)(=O)C(F)(F)SCc2ccccc2)n1 [Example 10]	100%
CCN(CC)C(=O)n1cnc(S(=O)(=O)C(F)(F)Cl)n1 [Example 3]	100%
CCN(CC)C(=O)n1cnc(S(=O)(=O)C(F)(F)C(F)(F)Br)n1 [Example 4]	100%

Same assay, conditions: PPI application, 900 g/ha

SMILES	Percent inhibition BRAPP
CCN(CC)C(=O)n1cnc(S(=O)(=O)C(F)(F)SCc2ccccc2)n1 [Example 10]	100%
CCN(CC)C(=O)n1cnc(S(=O)(=O)C(F)(F)Cl)n1 [Example 3]	90%
CCN(CC)C(=O)n1cnc(S(=O)(=O)C(F)(F)C(F)(F)Br)n1 [Example 4]	100%

Same assay, conditions: pre-plant incorporated; lowest tested rate with 80% or greater inhibition; about 14 days

SMILES	PPI activity GR80, BRAPP
CCN(CC)C(=O)n1cnc(S(=O)(=O)C(F)(F)C(=O)c2ccccc2)n1 [Example 6]	300 g/ha

Test system: LAMPU (purple deadnettle)
Assay: Pre-plant incorporated (PPI) herbicidal activity, cool season
Assay type: in vivo, Lamium purpureum
Settings: pre-plant incorporated; lowest tested rate with 80% or greater inhibition; about 14 days
Method: as §2, §3, §4

SMILES	PPI activity GR80, LAMPU
CCN(CC)C(=O)n1cnc(S(=O)(=O)C(F)(F)C(=O)c2ccccc2)n1 [Example 6]	300 g/ha

Same assay, conditions: weed, PPI application, 10 g/ha

SMILES	Percent inhibition LAMPU
CCN(CC)C(=O)n1cnc(S(=O)(=O)C(F)(F)SCc2ccccc2)n1 [Example 10]	0%

Same assay, conditions: weed, PPI application, 30 g/ha

SMILES	Percent inhibition LAMPU
CCN(CC)C(=O)n1cnc(S(=O)(=O)C(F)(F)SCc2ccccc2)n1 [Example 10]	0%
CCN(CC)C(=O)n1cnc(S(=O)(=O)C(F)(F)Cl)n1 [Example 3]	60%
CCN(CC)C(=O)n1cnc(S(=O)(=O)C(F)(F)C(F)(F)Br)n1 [Example 4]	40%

Same assay, conditions: weed, PPI application, 100 g/ha

SMILES	Percent inhibition LAMPU
CCN(CC)C(=O)n1cnc(S(=O)(=O)C(F)(F)Cl)n1 [Example 3]	95%
CCN(CC)C(=O)n1cnc(S(=O)(=O)C(F)(F)C(F)(F)Br)n1 [Example 4]	80%

Same assay, conditions: weed, PPI application, 300 g/ha

SMILES	Percent inhibition LAMPU
CCN(CC)C(=O)n1cnc(S(=O)(=O)C(F)(F)SCc2ccccc2)n1 [Example 10]	0%
CCN(CC)C(=O)n1cnc(S(=O)(=O)C(F)(F)Cl)n1 [Example 3]	100%
CCN(CC)C(=O)n1cnc(S(=O)(=O)C(F)(F)C(F)(F)Br)n1 [Example 4]	80%

Same assay, conditions: weed, PPI application, 900 g/ha

SMILES	Percent inhibition LAMPU
CCN(CC)C(=O)n1cnc(S(=O)(=O)C(F)(F)SCc2ccccc2)n1 [Example 10]	50%
CCN(CC)C(=O)n1cnc(S(=O)(=O)C(F)(F)Cl)n1 [Example 3]	100%
CCN(CC)C(=O)n1cnc(S(=O)(=O)C(F)(F)C(F)(F)Br)n1 [Example 4]	90%

Test system: AGSST (creeping bentgrass)
Assay: as above
Assay type: in vivo, Agrostis stolonifera
Settings: pre-plant incorporated; lowest tested rate with 80% or greater inhibition; about 14 days
Method: as §2, §3, §4

SMILES	PPI activity GR80, AGSST
CCN(CC)C(=O)n1cnc(S(=O)(=O)C(F)(F)C(=O)c2ccccc2)n1 [Example 6]	100 g/ha

Same assay, conditions: weed, PPI application, 10 g/ha

SMILES	Percent inhibition AGSST
CCN(CC)C(=O)n1cnc(S(=O)(=O)C(F)(F)SCc2ccccc2)n1 [Example 10]	90%

Same assay, conditions: weed, PPI application, 30 g/ha

SMILES	Percent inhibition AGSST
CCN(CC)C(=O)n1cnc(S(=O)(=O)C(F)(F)SCc2ccccc2)n1 [Example 10]	70%
CCN(CC)C(=O)n1cnc(S(=O)(=O)C(F)(F)Cl)n1 [Example 3]	100%
CCN(CC)C(=O)n1cnc(S(=O)(=O)C(F)(F)C(F)(F)Br)n1 [Example 4]	100%

Same assay, conditions: weed, PPI application, 100 g/ha

SMILES	Percent inhibition AGSST
CCN(CC)C(=O)n1cnc(S(=O)(=O)C(F)(F)SCc2ccccc2)n1 [Example 10]	100%
CCN(CC)C(=O)n1cnc(S(=O)(=O)C(F)(F)Cl)n1 [Example 3]	100%
CCN(CC)C(=O)n1cnc(S(=O)(=O)C(F)(F)C(F)(F)Br)n1 [Example 4]	100%

Same assay, conditions: weed, PPI application, 300 g/ha

SMILES	Percent inhibition AGSST
CCN(CC)C(=O)n1cnc(S(=O)(=O)C(F)(F)SCc2ccccc2)n1 [Example 10]	100%
CCN(CC)C(=O)n1cnc(S(=O)(=O)C(F)(F)Cl)n1 [Example 3]	100%
CCN(CC)C(=O)n1cnc(S(=O)(=O)C(F)(F)C(F)(F)Br)n1 [Example 4]	100%

Same assay, conditions: weed, PPI application, 900 g/ha

SMILES	Percent inhibition AGSST
CCN(CC)C(=O)n1cnc(S(=O)(=O)C(F)(F)SCc2ccccc2)n1 [Example 10]	100%
CCN(CC)C(=O)n1cnc(S(=O)(=O)C(F)(F)Cl)n1 [Example 3]	100%
CCN(CC)C(=O)n1cnc(S(=O)(=O)C(F)(F)C(F)(F)Br)n1 [Example 4]	100%

Test system: SETVI (green foxtail)
Assay: Post-emergence herbicidal activity, cool season
Assay type: in vivo, Setaria viridis
Settings: abraded plants sprayed at 300, 100, 30 and 10 g/ha; about 14 days after treatment
Method: (§5) In another set of tests, the post-emergence activity of compounds of this invention was evaluated on the cool season species listed above. The following procedure was used.
(§6) A pre-prepared topsoil mixture (described above) was placed in a pot and compacted to a depth of 1.0 to 1.25 cm from the top of the pot. Seeds of each of several monocotyledonous and dicotyledonous annual plant species were placed on top of the soil. The seeds were covered with a mixture of 50% topsoil and 50% Rediearth™ in sufficient quantity to level-fill the pots. The pots were then placed on a greenhouse bench and subirrigated as needed.
(§7) When plants growing from the seeds had emerged and reached a suitable growth stage for post-emergence treatment, typically 9 to 14 days after planting, above-ground parts of the plants were subjected to a pre-treatment involving abrasion to create greater opportunity for foliar uptake of subsequently applied compounds. Abrasion was performed using garnet 200w particles applied with a Sears Craftsman hand-held sandblaster operated at approximately 850 kPa (50 psig) pressure.
(§8) A known amount of each test compound dissolved or suspended in an appropriate organic solvent was diluted with a 50:50 mix of acetone and water and applied to the plants by spraying with a standard spray nozzle in a spray volume of […] at a spray pressure of 511 kPa (30 psig). Only the compounds of Examples 1, 8-15 and 17-22 were included in post-emergence tests. Application rates for these compounds were 300, 100, 30 and 10 g/ha. Control plants were abraded but not sprayed.
(§9) After treatment the plants were placed in a greenhouse with an 18/13° C. day/night temperature regime and were subsequently watered as needed for growth. Approximately 14 days after treatment, the plants were observed and herbicidal efficacy recorded as percent inhibition by comparison with control plants. GR80 values were assigned for each compound as described above for the pre-emergence tests.

SMILES	Post-emergence activity GR80, SETVI
CCN(CC)C(=O)n1cnc(S(=O)(=O)C(F)(F)SCc2ccccc2)n1 [Example 10]	[empty]

Test system: AGRRE (quackgrass (seedling))
Assay: Post-emergence herbicidal activity, cool season
Assay type: in vivo, Elymus repens
Settings: abraded plants sprayed at 300, 100, 30 and 10 g/ha; about 14 days after treatment
Method: as §5, §6, §7, §8, §9

SMILES	Post-emergence activity GR80, AGRRE
CCN(CC)C(=O)n1cnc(S(=O)(=O)C(F)(F)SCc2ccccc2)n1 [Example 10]	[empty]
